Reference: patent publication US11331290B2, “Niclosamide for the treatment of cancer metastasis” (Max-Delbrück-Centrum für Molekulare Medizin in der …, priority 2011, dated 2022)

Assays:
Format in all cases: cell-based, human
HCT116-S100A4 cells = assay: Soft agar colony formation assay; details: 1 μM, 7 days
Experimental: (§1) Analysis of anchorage-independent cell proliferation was achieved by soft agar colony formation assay. A bottom layer containing 0.5% w/v agarose, RPMI-1640 medium, 10% FBS and 1 μM niclosamide or the respective amount of DMSO was added to a 6 cm Ø dish and incubated at room temperature under sterile conditions for 10 minutes. Onto the solidified bottom layer a top layer was added containing 8×10^3 cells, 0.33% w/v agarose, RPMI-1640 medium, 10% FBS and 1 μM niclosamide or the respective amount of DMSO. Cells were seeded as single cells into the soft agar and incubated in a humidified incubator at 37° C. and 5% CO2 for 7 days. Colony formation was visualized by 10× magnification for an overview and 40× magnification for single colonies in the Leica DM IL light microscope (Leica Microsystems). Colony quantification was achieved by counting cell colonies of more than 4 cells in 10 squares of […]. Colony formation experiments were repeated twice, each in triplicates.
(§2) (A) Cell migration of HCT116-vector and HCT116-S100A4 cells exposed to niclosamide treatment. Cells were treated with 1 μM niclosamide for 24 hours and migration rates were measured with Boyden chamber assay. (B) Cell invasion of HCT116-vector and HCT116-S100A4 cells exposed to niclosamide treatment. Cells were treated with 1 μM niclosamide for 24 hours and cell invasion was determined by Boyden chamber assay. (C) Directed migration of HCT116-vector and HCT116-S100A4 cells exposed to niclosamide treatment analyzed by wound healing assay. Wounds of 300 μM width were set in a 60% confluent monolayer of HCT116-vector or HCT116-S100A4 cells on day 1. Cells were treated daily with 1 μM niclosamide for 4 days. Microphotographs of day 4 are presented here with black lines indicating margins of entered wound of day 1; scale bar represents 200 μM. Data represents three independent experiments. (D) Adhesive cell proliferation of HCT116-vector and HCT116-S100A4 cells exposed to niclosamide treatment. Cells were treated daily with 1 μM niclosamide and cell viability was determined with MTT assay. (E) Anchorage-independent cell growth of HCT116-vector and HCT116-S100A4 cells exposed to niclosamide treatment. Cells were plated as single cells into 0.33% (w/v) agarose and treatment (solvent or 1 μM niclosamide) containing medium. After 7 days colonies were visualized by light microscopy at 10× (overview) and 40× (single colony) magnification. (F) Quantification of colonies formed. Number of colonies (of more than 4 cells) was counted and normalized to solvent-treated HCT116-vector cells. Differences of niclosamide vs. solvent-treated cells were analyzed by Student's t test. Data represent mean±SE (n>2) of at least two independent experiments each performed in at least duplicate.

HCT116-vector cells = assay: Soft agar colony formation assay; details: 1 μM, 7 days
Experimental: as §1, §2

[1] = test system: SW620, LS174T, SW480 and DLD-1 cells; assay: Anchorage-dependent cell proliferation (MTT); details: all four cell lines, 1 μM daily
Experimental: For cell proliferation determination of HCT116, SW620, LS174T, SW480 and DLD-1 cells 2×10^3 cells were seeded in 96-well-plates (for each day one plate) and were given 24 hours to attach to the bottom of the well. Cells were from then on treated daily with 1 μM niclosamide or the respective amount of DMSO. For determination of viable cells 3-(4,5-dimethyl-2-thiazol)-2,5-diphenyl-2H-tetrazolium bromide (MTT; Sigma) was added to a final concentration of 0.5 mg per mL and incubated for 3 hours at 37° C. and 5% CO2 in a humidified incubator. […] Crystallized MTT was resolved by 10% SDS in 10 mM HCl and the absorption was measured at 560 nm. […] The average MTT metabolisation was determined of two independent experiments each performed in triplicate.
(A) S100A4 expression under niclosamide treatment. […] S100A4 expression was analyzed with qRT-PCR and immunoblot. […] Migration rates of cells treated with 1 μM niclosamide for 24 hours were determined in a Boyden chamber assay values were normalized to solvent-treated SW620 cells. […] Invaded cells in the lower chamber were counted and normalized to solvent-treated SW620 cells. Differences in solvent vs. niclosamide-treated cells were analyzed by Student's t test. […] The amount of viable cells per well was determined by MTT assay. […] (G) Quantification of colonies formed. Number of colonies (of more than 4 cells) was counted and normalized to solvent-treated SW620 cells. […]

O=C(Nc1ccc([N+](=O)[O-])cc1Cl)c1cc(Cl)ccc1O [niclosamide, 2′,5-dichloro-4′-nitrosalicylanilide]
colony size (HCT116-S100A4 cells): clearly reduced
number of colonies, mean difference control vs niclosamide (HCT116-S100A4 cells): 100.7%
number of colonies, mean % of solvent-treated HCT116-vector cells (HCT116-S100A4 cells; solvent control 105.8%): 5.0%
colony size (HCT116-vector cells): clearly reduced
number of colonies, mean % of solvent-treated HCT116-vector cells (HCT116-vector cells): 6.8%
number of colonies, mean difference control vs niclosamide (HCT116-vector cells): 93.2%
anchorage-dependent cell proliferation [1]: inhibited
